Laboratory results from paper PMC2033742, “Comparison of ability of protein kinase C inhibitors to arrest cell growth and to alter cellular protein kinase C localisation” (British Journal of Cancer, 1995).
Where two headings read alike, the source gives them in different places.

Experiments:
[1] = test system: A549 lung carcinoma cells; assay: Cell growth inhibition by cell counting (Coulter Counter), A549; type: cell-based, human
Experimental: (§1) Compounds with varying degrees of potency and specificity for PKC were investigated in A549 and MCF-7 carcinoma cells. […] To substantiate the role of PKC in the growth inhibition caused by these agents, cells were depleted of PKC by incubation with bryostatin 1 (1 jsM). […] The subcellular distribution of PKC-z-, -e and -< was measured by Western blot analysis. […] Cell growth Human A549 lung and MCF-7 breast carcinoma cells were obtained from the European Collection of Animal Cell Cul- tures (Salisbury, UK). Cells (passage number 10-30) were cultured in an atmosphere of 5% carbon dioxide, the former in Ham's F-12 medium with penicillin/streptomycin, the lat- ter in minimum essential medium (Eagle's modification) with additional pyruvate (1 mM) and non-essential amino acids. Both media were supplemented with 10% FCS (Imperial Laboratories Europe, Andover, UK, and Gibco) and gluta- mine (2 mM). Cells were subcultured routinely twice weekly to maintain logarithmic growth. For cell proliferation studies cells were seeded at a density of 1.3 x 104 cm-2 and incubat- ed with 3 ml of medium including agents, which was replen- ished at intervals of 48 h (A549) or 72 h (MCF-7). Following incubation for 4 days (A549) or 6 days (MCF-7) with drugs, cell number was assessed using a Coulter Counter Model ZM. […] Bryostatin was removed by extensive washing of the cells followed by a 2 h recovery period. […] In some experiments cells were incubated with inhibitor for 48 rather than 24 h, in this case bryostation was not removed and left in the incubate. […] Radioactivity was counted using a Packard 1500 Tricarb scintillation counter. […] The amount of protein loaded per lane was 20 tg for detection of cPKC-oc and 30 lg for nPKC-e. Detection was by enhanced chemi- luminescence generated by oxidation of luminol in the presence of hydrogen peroxide using an ECL kit from Amer- sham International.

cPKC-a = target: T1, cPKC-a (Homo sapiens, UniProt P17252); assay: Subcellular localisation of cPKC-alpha in A549 cells, Western blot of cellular fractions; type: cell-based
T1 construct: these three PKC isoenzymes are abundantly ex- pressed in A549 cells; endogenous in cells; host or cells: A549 human lung carcinoma cells
Experimental: as §1

nPKC-e = target: T2, nPKC-e (Homo sapiens, UniProt Q02156); assay: Subcellular localisation of nPKC-epsilon in A549 cells, Western blot of cytosolic, particulate and nuclear fractions
T2 sequence (Q02156 1-737): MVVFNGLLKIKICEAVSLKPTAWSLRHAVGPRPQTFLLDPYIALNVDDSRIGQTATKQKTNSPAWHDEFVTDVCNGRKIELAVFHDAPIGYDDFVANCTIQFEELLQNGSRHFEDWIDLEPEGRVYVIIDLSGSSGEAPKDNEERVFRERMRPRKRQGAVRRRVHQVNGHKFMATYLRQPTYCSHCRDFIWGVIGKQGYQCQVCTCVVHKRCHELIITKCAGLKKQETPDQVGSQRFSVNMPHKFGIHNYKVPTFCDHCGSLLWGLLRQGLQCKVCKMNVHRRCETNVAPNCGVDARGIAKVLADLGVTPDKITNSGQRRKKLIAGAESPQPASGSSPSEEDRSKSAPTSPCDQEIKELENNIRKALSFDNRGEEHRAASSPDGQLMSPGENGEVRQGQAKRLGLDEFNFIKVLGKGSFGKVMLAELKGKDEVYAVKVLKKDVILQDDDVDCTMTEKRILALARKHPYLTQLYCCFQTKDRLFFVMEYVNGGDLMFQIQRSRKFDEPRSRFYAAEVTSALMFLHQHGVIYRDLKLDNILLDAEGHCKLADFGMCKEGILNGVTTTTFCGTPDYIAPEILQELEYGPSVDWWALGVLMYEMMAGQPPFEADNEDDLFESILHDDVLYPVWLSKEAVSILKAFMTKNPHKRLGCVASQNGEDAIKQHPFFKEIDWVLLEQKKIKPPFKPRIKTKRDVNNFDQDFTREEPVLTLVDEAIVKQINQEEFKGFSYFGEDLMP
Experimental: as §1

A549 cells = assay: [3H]Tdr incorporation into control (naive) A549 cells; type: cell-based, human
Experimental: as §1

PKC-depleted A549 cells = assay: [3H]Tdr incorporation into PKC-depleted (bryostatin 1 pretreated) A549 cells; type: cell-based, human
Experimental: as §1

[2] = phase I trials, ref Phillip et al., 1993, Prendiville et al.; cited from earlier work
[3] = test system: A549 lung carcinoma cells; set-up: method as in Dale and Gescher, 1989; Stanwell et al., 1994; details: 24 h with bryostatin 1 (1 micromolar); ref Dale and Gescher, 1989; Stanwell et al., 1994; cited from earlier work
cPKC-a and nPKC-e = assay: PKC down-regulation in A549 cells by bryostatin 1, Western blot; type: cell-based, human; details: bryostatin 1 at 1 (micromolar) for 24 h
Experimental: To substantiate the role of PKC in the growth inhibition caused by these agents, cells were depleted of PKC by incubation with bryostatin 1 (1 jsM). […] The subcellular distribution of PKC-z-, -e and -< was measured by Western blot analysis. […] Bryostatin was removed by extensive washing of the cells followed by a 2 h recovery period. […] In some experiments cells were incubated with inhibitor for 48 rather than 24 h, in this case bryostation was not removed and left in the incubate. […] The amount of protein loaded per lane was 20 tg for detection of cPKC-oc and 30 lg for nPKC-e. Detection was by enhanced chemi- luminescence generated by oxidation of luminol in the presence of hydrogen peroxide using an ECL kit from Amer- sham International.

[4] = Homo sapiens, A549, weaker enzyme inhibitors, read-out: concentrations which arrested growth
[5] = A549 cells, 30 min, with TPA 25 nM, staurosporine effect not significant (P = 0.08)
[6] = control A549 cells, 24 h with inhibitor, read-out: IC50 for inhibition of [3H]Tdr incorporation
[7] = PKC-depleted A549 cells (bryostatin 1 for 24 h, washed), 24 h with inhibitor, read-out: IC50 for inhibition of [3H]Tdr incorporation
[8] = A549 and MCF-7 cells, read-out: IC50 values for growth arrest (stronger growth inhibitors)
[9] = Homo sapiens, A549, read-out: IC50 for inhibition of [3H]Tdr incorporation
[10] = weaker enzyme inhibitors, read-out: concentrations which arrested growth

With CCCCCCCCCCCCCCCCOP(=O)([O-])OCC[N+](C)(C)C [Miltefosine, Hexadecylphosphocholine] as the molecule, how does the IC50 [1, 4] read?
The IC50 was > 1000 nM.

And the “effect on TPA-induced cPKC-a redistribution” value (shortened to “effect”) (cPKC-a; [5])?
Its value is “failed to affect TPA-induced cPKC-a redistribution”.

Which results are given for CN[C@@H]1C[C@H]2O[C@@](C)([C@@H]1OC)n1c3ccccc3c3c4c(c5c6ccccc6n2c5c31)C(=O)N[C@H]4O [UCN-01]?
concentration required for translocation relative to IC50 for growth of A549 cells (nPKC-e; A549): 2- to 3 fold; concentration which changed nPKC-e localisation significantly (nPKC-e; A549 cells, 30 min, P<0.05 vs control): 0.1 pM; IC50 (A549 cells; [6]): 68 nM; IC50 (PKC-depleted A549 cells; [7]): 47 nM; IC50 [1, 8]: < 1000 nM; effect on TPA-induced cPKC-a redistribution (cPKC-a; [5]): behaved similarly; blots in which TPA-induced cPKC-a translocation was augmented (cPKC-a; A549 cells, UCN-01 at 1 (micromolar) with TPA 25 nM): three out of six

Which results are given for CCC/C=C/C=C/C(=O)O[C@H]1/C(=C/C(=O)OC)C[C@H]2C[C@H]([C@@H](C)O)OC(=O)C[C@H](O)C[C@@H]3C[C@H](OC(C)=O)C(C)(C)[C@](O)(C[C@@H]4C/C(=C/C(=O)OC)C[C@H](/C=C/C(C)(C)[C@]1(O)O2)O4)O3 [bryostatin 1]?
dose-limiting toxicity [2]: myalgia; growth inhibition under PKC depletion conditions [3]: negligible; down-regulation of cPKC-a and nPKC-e (cPKC-a and nPKC-e): completely down-regulated

For Cn1cc(C2=C(c3cn(CCCSC(=N)N)c4ccccc34)C(=O)NC2=O)c2ccccc21 [RO 31-8220], which “concentration which changed nPKC-e localisation significantly” value (nPKC-e) is on record?
Its value is 0.1 pM.

And the IC50 (A549 cells; [6])?
The IC50 was 1900 nM.

And the IC50 (PKC-depleted A549 cells; [7])?
Its IC50 is 1600 nM.

What about the IC50 [1, 8] of the same molecule?
Its IC50 is < 1000 nM.

And the “effect” value (cPKC-a)?
Its value is “failed to affect TPA-induced cPKC-a redistribution”.

What does the source list for CC1CNCCN1S(=O)(=O)c1cccc2cnccc12 (stereo not drawn) [H-7, 1-(5-Isoquinolinesulfonyl)-2-methylpiperazine]?
IC50 (A549 cells; [9]): 32000 nM; IC50 (PKC-depleted A549 cells; [9]): 20000 nM; IC50 [1, 4]: > 1000 nM; effect on TPA-induced cPKC-a redistribution (cPKC-a): failed to affect TPA-induced cPKC-a redistribution

Which “effect” value (cPKC-a; [5]) does the source give for CO[C@@H]1[C@H](N(C)C(=O)c2ccccc2)C[C@H]2O[C@]1(C)n1c3ccccc3c3c4c(c5c6ccccc6n2c5c31)C(=O)NC4 [CGP 41251] here?
Its value is “failed to affect TPA-induced cPKC-a redistribution”.

Which IC50 ([1]; Homo sapiens, A549 and MCF-7 cells, read-out: IC50 values for growth arrest (stronger growth inhibitors)) does the source give for COc1c(C[C@@H](C)OC(=O)Oc2ccc(O)cc2)c2c3c(C[C@@H](C)OC(=O)c4ccccc4)c(OC)c(=O)c4c(O)cc(OC)c(c5c(OC)cc(O)c(c1=O)c52)c43 [Calphostin C, calphostin C] here?
Its IC50 is < 1000 nM.

And the “effect” value (cPKC-a)?
The value was “failed to affect TPA-induced cPKC-a redistribution”.

For CCCCCCCCCCCCC/C=C/[C@@H](O)[C@H](CO)[N+](C)(C)C [TMS, trimethylsphingosine], which IC50 [1, 10] is on record?
Its IC50 is > 1000 nM.

With CCCCCCCCCCCCC(=O)N1CCCCC1CNC(=O)C(N)CCCCN (stereo not drawn) [NPC 15-437, 2,6-Diamino-N-([l-(1-oxotridecyl)-2-piperidinyl]methyl)hexanamide] as the molecule, how does the IC50 [1, 10] read?
The IC50 was > 1000 nM.

Which IC50 (A549 cells; [9]) does the source give for CN[C@@H]1C[C@H]2O[C@@](C)([C@@H]1OC)n1c3ccccc3c3c4c(c5c6ccccc6n2c5c31)C(=O)NC4 [Staurosporine, staurosporine] here?
The IC50 was 1.2 nM.

What does the source list for CN(C)CCCn1cc(C2=C(c3c[nH]c4ccccc34)C(=O)NC2=O)c2ccccc21 [GF 109203X]?
concentration which changed nPKC-e localisation significantly (nPKC-e): 0.1 pM; IC50 ([1]; A549 and MCF-7 cells, read-out: IC50 for interference with cell growth): > 7000 nM; effect on TPA-induced cPKC-a redistribution (cPKC-a): failed to affect TPA-induced cPKC-a redistribution
